Test results as given in ChEMBL document CHEMBL1131425 (J Med Chem, 1998).

What was measured:
[1] = biological target: 5-hydroxytryptamine receptor 2A (Rattus norvegicus, UniProt P14842); test: Binding affinity against rat 5-hydroxytryptamine 2A receptor in NIH3T3 cells.; format: cell-based
[2] = biological target: T1, 5-hydroxytryptamine receptor 2C (Rattus norvegicus, UniProt P08909); test: Binding affinity against rat 5-hydroxytryptamine 2C receptor in A-9 cells.; format: cell-based
T1 sequence (P08909 whole entry): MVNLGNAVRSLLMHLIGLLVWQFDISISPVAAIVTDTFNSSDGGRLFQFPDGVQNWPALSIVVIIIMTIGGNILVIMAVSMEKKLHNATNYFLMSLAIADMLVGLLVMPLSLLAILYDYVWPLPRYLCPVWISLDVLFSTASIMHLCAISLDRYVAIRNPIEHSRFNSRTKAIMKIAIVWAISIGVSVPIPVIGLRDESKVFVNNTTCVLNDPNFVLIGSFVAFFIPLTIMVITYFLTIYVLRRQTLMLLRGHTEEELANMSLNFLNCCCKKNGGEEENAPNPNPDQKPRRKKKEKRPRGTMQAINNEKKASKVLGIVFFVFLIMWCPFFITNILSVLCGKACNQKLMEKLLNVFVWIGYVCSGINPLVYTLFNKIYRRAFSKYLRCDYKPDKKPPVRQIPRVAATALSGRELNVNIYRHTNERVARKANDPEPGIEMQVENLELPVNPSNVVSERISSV

[3] = biological target: T2, 5-hydroxytryptamine receptor 1A (Rattus norvegicus, UniProt P19327); test: Binding affinity against rat 5-hydroxytryptamine 1A receptor in CHO cells.; format: cell-based
T2 sequence (P19327 whole entry): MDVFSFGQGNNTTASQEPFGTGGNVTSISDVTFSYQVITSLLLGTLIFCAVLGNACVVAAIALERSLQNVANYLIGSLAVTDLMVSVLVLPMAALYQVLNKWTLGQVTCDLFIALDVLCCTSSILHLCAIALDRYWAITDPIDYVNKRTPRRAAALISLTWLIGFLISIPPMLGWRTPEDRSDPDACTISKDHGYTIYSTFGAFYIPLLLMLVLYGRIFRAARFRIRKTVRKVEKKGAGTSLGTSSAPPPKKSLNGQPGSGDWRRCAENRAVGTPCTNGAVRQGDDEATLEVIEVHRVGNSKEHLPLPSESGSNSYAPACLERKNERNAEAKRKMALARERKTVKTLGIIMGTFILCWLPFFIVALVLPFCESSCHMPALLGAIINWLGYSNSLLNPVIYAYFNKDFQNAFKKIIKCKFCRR

D(2) dopamine receptor = D(2) dopamine receptor (Rattus norvegicus, UniProt P61169); test: Binding affinity against rat Dopamine receptor D2.
Sequence of D(2) dopamine receptor (P61169 whole entry): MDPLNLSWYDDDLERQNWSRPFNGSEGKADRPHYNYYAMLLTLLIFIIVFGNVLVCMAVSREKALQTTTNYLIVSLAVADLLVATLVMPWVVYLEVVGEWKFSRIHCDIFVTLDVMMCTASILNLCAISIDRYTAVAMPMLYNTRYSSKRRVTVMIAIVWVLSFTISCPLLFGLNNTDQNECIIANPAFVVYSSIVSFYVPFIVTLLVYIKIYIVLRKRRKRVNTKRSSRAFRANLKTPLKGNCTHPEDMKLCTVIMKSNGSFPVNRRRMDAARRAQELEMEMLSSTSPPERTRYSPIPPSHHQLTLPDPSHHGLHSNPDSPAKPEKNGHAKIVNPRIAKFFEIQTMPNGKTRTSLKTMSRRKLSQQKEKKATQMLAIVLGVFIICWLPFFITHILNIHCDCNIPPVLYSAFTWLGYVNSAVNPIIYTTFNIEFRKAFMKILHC

Sequence of 5-hydroxytryptamine receptor 2A (P14842 whole entry): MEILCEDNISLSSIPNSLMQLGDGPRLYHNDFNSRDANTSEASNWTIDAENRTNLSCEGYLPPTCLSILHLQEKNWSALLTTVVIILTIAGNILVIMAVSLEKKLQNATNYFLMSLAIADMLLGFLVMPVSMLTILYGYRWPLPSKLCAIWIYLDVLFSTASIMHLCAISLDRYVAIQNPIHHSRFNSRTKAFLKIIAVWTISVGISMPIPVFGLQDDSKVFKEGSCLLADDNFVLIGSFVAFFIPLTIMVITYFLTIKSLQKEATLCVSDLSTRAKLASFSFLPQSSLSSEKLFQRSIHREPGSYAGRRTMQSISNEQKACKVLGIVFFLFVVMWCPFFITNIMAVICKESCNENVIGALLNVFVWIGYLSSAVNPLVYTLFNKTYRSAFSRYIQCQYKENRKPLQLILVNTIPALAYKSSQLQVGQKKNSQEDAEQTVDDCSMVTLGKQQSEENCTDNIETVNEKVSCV

Compound	Ki [1]	Ki [2]	Ki [3]	Ki (D(2) dopamine receptor)
O=C(CCCN1CCC2(CC1)NCNC2=O)c1ccc(F)cc1	5600 nM	> 10000 nM	> 10000 nM	
CN1CN(C)C2(CCN(CCCC(=O)c3ccc(F)cc3)CC2)C1=O	45 nM	> 10000 nM	> 10000 nM	300 nM
CN1CN(Cc2ccccc2)C(=O)C12CCN(CCCC(=O)c1ccc(F)cc1)CC2	22 nM	1400 nM	265 nM	
CC(C)N1CN(C)C2(CCN(CCCC(=O)c3ccc(F)cc3)CC2)C1=O	7 nM	> 10000 nM	6300 nM	46 nM
CNC1(C(N)=O)CCN(CCCC(=O)c2ccc(F)cc2)CC1	130 nM	4480 nM	> 10000 nM	
CC(C)NC1(C(N)=O)CCN(CCCC(=O)c2ccc(F)cc2)CC1	14 nM	426 nM	> 10000 nM	400 nM
O=C(CCCN1CCC2(CC1)C(=O)NCN2C1CCCCC1)c1ccc(F)cc1	0.7 nM	677 nM		0.7 nM
CCCCN1CN(C)C2(CCN(CCCC(=O)c3ccc(F)cc3)CC2)C1=O	19 nM	> 10000 nM	> 10000 nM	13 nM
CN1CNC(=O)C12CCN(CCCC(=O)c1ccc(F)cc1)CC2	23 nM	> 10000 nM	> 10000 nM	220 nM
CCCN1CN(C)C2(CCN(CCCOc3ccc(F)cc3)CC2)C1=O	19 nM	> 10000 nM	> 10000 nM	230 nM
CCCN1CN(C)C2(CCN(CCCC(=O)c3ccc(F)cc3)CC2)C1=O	20 nM	> 10000 nM	> 10000 nM	130 nM
CN1CNC(=O)C12CCN(CCCOc1ccc(F)cc1)CC2	35 nM	> 10000 nM		734 nM
CCN1CNC(=O)C12CCN(CCCC(=O)c1ccc(F)cc1)CC2	170 nM	> 10000 nM	7960 nM	170 nM
CCN1CN(C)C2(CCN(CCCC(=O)c3ccc(F)cc3)CC2)C1=O	21 nM	> 10000 nM	> 10000 nM	
NC(=O)C1(NC2CCCCC2)CCN(CCCC(=O)c2ccc(F)cc2)CC1	6 nM	270 nM	1610 nM	43 nM
CC(C)N1CNC(=O)C12CCN(CCCC(=O)c1ccc(F)cc1)CC2	38 nM	> 10000 nM	2340 nM	400 nM
NC(=O)C1(N)CCN(CCCC(=O)c2ccc(F)cc2)CC1	420 nM	> 10000 nM		
O=C(CCCN1CCC2(CC1)C(=O)NCN2c1ccccc1)c1ccc(F)cc1 [SPIPERONE]			58 nM	
